Experimental data as given in publication PMC11061835, “Elucidating the Mechanism of Metabolism of Cannabichromene by Human Cytochrome P450s” (Journal of Natural Products, 2024).

Columns and labels:
[1] = target: T1, CYP2C8 (Homo sapiens, UniProt P10632); assay: CBC metabolism by CYP2C8; type: in vitro ADME; conditions: CYP2C8, from Vmax
T1 construct: His-tag; made in house; host or cells: E. coli DH-5α with pTGro7 plasmid
T1 sequence (P10632 1-490): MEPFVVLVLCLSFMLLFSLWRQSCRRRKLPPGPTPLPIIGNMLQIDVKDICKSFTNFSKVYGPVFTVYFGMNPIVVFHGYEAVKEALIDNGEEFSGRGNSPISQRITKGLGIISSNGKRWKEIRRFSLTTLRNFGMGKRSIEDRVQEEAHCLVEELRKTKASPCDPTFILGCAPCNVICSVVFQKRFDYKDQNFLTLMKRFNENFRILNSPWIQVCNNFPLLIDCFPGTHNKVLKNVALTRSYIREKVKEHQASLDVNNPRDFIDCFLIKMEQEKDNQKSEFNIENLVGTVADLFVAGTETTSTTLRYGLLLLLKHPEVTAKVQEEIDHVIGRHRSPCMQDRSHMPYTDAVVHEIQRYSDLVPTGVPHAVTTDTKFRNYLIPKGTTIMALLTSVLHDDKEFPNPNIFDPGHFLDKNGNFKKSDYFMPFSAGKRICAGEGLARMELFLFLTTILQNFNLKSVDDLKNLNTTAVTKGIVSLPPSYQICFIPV
Description: (§1) To study the kinetics of CBC metabolism, concentration dependent metabolism of CBC was carried out in the presence of various CYPs using the following procedure. CYP2J2, CYP2C8, CYP2D6, CYP2C9, and CYP3A4 (final concentration 0.5 μM) were initially dissolved in lipid containing POPC:POPS (8:2 v/v) followed by addition of CPR (final concentration 0.6 μM) in 0.1 M potassium phosphate buffer (pH 7.4). CBC (5–80 μM) was added and incubated at 37 °C for 10 min. The reaction was triggered by NADPH and extracted using the exact sample protocol as mentioned in the HLM section.
(§2) Samples were analyzed with the 5500 QTRAP LC/MS/MS system (Sciex, Framingham, MA) in the Metabolomics Lab of Roy J. Carver Biotechnology Center, University of Illinois at Urbana–Champaign. Software Analyst 1.7.1 was used for data acquisition and analysis. The 1200 series HPLC system (Agilent Technologies, Santa Clara, CA) includes a degasser, an autosampler, and a binary pump. […] Multiple reaction monitoring (MRM) was used for quantitation: CBC m/z 315.1 → m/z 135.0; 1-acetoxy-6′,7′-dihydroxy-CBC (JM-I-73) m/z 349.1→ m/z 193.0; 1″-hydroxy-CBC (JM-I-66) m/z 331.1→ m/z 275.1; 6′,7′-epoxy-CBC (JM-I-27) m/z 331.1→ m/z 193.0; 7′,10′-ene-6′-hydroxy-CBC (JM-I-30) m/z 331.1→ m/z 193.0; 8′-hydroxy-CBC (JM-I-32) […]→ m/z 77.0. Internal standard EET-EA-d11 was monitored at m/z 375.2→ m/z 357.1.

[2] = target: CYP2D6 (Homo sapiens, UniProt P10635); assay: CBC metabolism by CYP2D6; type: in vitro ADME; design: His-tag; made in house; host or cells: E. coli DH-5α with pTGro7 plasmid (CYP)
Description: as §1, §2

[3] = tested on: BV2 microglial cells, stimulated with lipopolysaccharide (LPS); assay: IL-6 ELISA in LPS-stimulated BV2 cells; type: cell-based, mouse; conditions: 0.1, 1.0, 2.5, 5.0 μM, LPS-stimulated
Description: BV2 cells were a gift from Dr. Bob McCusker, University of Illinois. They were cultured and maintained at 37 °C in a humidified atmosphere of 95% air and 5% CO2 in high-glucose Dulbecco’s modified Eagle’s (DMEM) medium (Cat No. 10-013-CV, Corning Life Sciences), supplemented with 5% heat-inactivated fetal bovine serum (FBS), streptomycin (100 μg/mL), and penicillin (100 units/mL). Stocks of all the minor cannabinoids were made in ethanol and stored at −80 °C and diluted as required before cell treatment. A final concentration of ethanol was maintained at 0.1% in the cell culture experiments.
BV-2 cells were plated at a density of 50 000 cells/well in a 24-well plate at 37 °C under controlled conditions. Cells were pretreated with the minor cannabinoids at various concentrations (0.1, 1.0, 2.5, 5.0 μM) for 4 h and then stimulated with LPS for 24 h. The culture medium was removed and saved for the determination of nitric oxide production through Cayman’s Griess assay. IL-6, TNFα, and Arginase 1 production was also determined utilizing collected medium. For the Greiss assay, in a 96-well plate, 100 μL of culture medium was used, and 50 μL of both Greiss reagent-1 and Greiss reagent-2 was added and incubated for 10 min. The absorbance was measured at 540 nm using a plate reader (SpectraMax iD5). The quantification was done using a calibration curve that was generated using the sodium nitrite standard obtained from Cayman Chemicals.
BV-2 cells were pretreated with the minor cannabinoids as described previously for 4 h in serum media (reduced to 5% FBS). Cells were stimulated with LPS (25 ng/mL in growth media) and allowed to incubate for 24 h. The culture medium was collected, and the concentrations of IL-6 (Cayman Chemicals), TNFα (ThermoFisher Scientific), and arginase 1 (ThermoFisher Scientific) cytokine expression were determined using specific monoclonal antibodies by ELISA kits as per manufacturer’s instructions.

[4] = target: cannabinoid receptor 2 (CB2); design: method as in PMID 31368508; conditions: agonist; cited from earlier work
[5] = tested on: TRPV1; design: method as in PMID 30697147; conditions: read-out: agonism toward TRPV1; cited from earlier work
[6] = design: method as in PMID 28640062; conditions: patients who consumed a CBD oil, cited from earlier work

CYP2D6, sequence (P10635 whole entry): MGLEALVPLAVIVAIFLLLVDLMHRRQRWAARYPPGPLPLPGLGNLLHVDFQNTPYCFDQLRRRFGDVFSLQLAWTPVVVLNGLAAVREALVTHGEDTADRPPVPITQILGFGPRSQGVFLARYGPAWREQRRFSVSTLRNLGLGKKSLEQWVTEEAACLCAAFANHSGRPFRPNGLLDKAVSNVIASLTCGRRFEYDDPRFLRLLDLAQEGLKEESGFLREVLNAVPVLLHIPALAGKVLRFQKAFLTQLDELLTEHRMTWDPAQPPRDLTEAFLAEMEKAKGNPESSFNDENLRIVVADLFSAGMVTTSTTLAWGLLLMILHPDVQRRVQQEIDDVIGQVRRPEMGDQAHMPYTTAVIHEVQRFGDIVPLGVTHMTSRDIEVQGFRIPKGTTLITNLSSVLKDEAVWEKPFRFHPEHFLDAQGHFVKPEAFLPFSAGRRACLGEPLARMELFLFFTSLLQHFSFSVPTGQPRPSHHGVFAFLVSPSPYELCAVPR
CYP2D6, sequence (P16435 whole entry partner): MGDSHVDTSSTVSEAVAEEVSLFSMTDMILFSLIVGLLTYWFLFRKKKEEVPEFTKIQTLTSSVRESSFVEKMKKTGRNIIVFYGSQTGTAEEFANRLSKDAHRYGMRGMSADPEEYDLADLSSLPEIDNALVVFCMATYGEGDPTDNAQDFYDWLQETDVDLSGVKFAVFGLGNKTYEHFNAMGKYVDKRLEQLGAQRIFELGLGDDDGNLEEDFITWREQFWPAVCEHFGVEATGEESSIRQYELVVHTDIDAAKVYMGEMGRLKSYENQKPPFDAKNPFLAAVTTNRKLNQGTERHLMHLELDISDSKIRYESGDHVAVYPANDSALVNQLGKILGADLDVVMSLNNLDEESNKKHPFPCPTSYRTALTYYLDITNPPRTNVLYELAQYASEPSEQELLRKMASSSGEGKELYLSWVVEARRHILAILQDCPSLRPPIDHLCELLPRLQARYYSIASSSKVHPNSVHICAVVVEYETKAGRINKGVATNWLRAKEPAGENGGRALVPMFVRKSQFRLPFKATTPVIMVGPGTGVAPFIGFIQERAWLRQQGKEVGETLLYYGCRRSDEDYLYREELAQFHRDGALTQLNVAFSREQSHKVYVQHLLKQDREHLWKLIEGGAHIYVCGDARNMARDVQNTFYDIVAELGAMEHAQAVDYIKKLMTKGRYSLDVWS

SMILES | ratio of 8′-hydroxy-CBC to 6′,7′-epoxy-CBC formed [1] | preference for 8′-hydroxy-CBC formation compared to 6′,7′-epoxy-CBC [2] | effect on IL-6 levels [3] | Ki [4] [nM] | EC50 [5] [nM] | detectable level of CBC in plasma ([6]; plasma) [ng/mL] | detectable level of CBC in urine ([6]; urine) [ng/mL]
CCCCCc1cc(O)c2c(c1)OC(C)(CC/C=C(\C)CO)C=C2 (stereo not shown) [8′-hydroxy-CBC] | around 5 | 3–4 times | – | – | – | – | –
CCCCCc1cc(O)c2c(c1)OC(C)(CCC=C(C)C)C=C2 (stereo not shown) [CBC, Cannabichromene] | – | – | Concentration dependent reduction | ~100 | < 10000 | ~60 | ~94
